Laboratory results reported in patent US20060069132A1, “Azolecarboxamide herbicides” (priority 2004, published 2006).

Tests used:
Experiment in all cases: Test E pre-/postemergence herbicide test
downy bromegrass = assay type: in vivo, Bromus tectorum
From the text: (§1) Seeds of plant species selected from bipinnate beggarticks (Bidens bipinnata L.), hairy beggarticks (Bidens radiata Thuill.), bermudagrass (Cynodon dactylon (L.) Pers.), Surinam grass (Urochloa decumbens (Staph) R. D. Webster, previously named Brachiaria decumbens Stapf), large crabgrass (Digitaria sanguinalis (L.) Scop.), green foxtail (Setaria viridis (L.) P. Beauv.), goosegrass (Eleusine indica (L.) Gaertn.), johnsongrass (Sorghum halepense (L.) Pers.), kochia (Kochia scoparia (L.) Schrad.), pitted morningglory (Ipomoea lacunosa L.), purple nutsedge (Cyperus rotundus L.), common ragweed (Ambrosia elatior L.), mustard (Brassica nigra (L.) W. D. J. Koch), guineagrass (Panicum maximum Jacq.), dallisgrass (Paspalum dilatatum Poir.), barnyardgrass (Echinochloa crus-galli (L). P. Beauv.), southern sandbur (Cenchrus echinatus L.), common sowthistle (Sonchus oleraceous L.), prickly sida (Sida spinosa L.), Italian ryegrass (Lolium multiflorum Lam.), common purslane (Portulaca oleracea L.), broadleaf signalgrass (Brachiaria platyphylla (Griseb.) Nash), common groundsel (Senecio vulgaris L.), common chickweed (Stellaria media (L.) Vill/Cyr.), tropical spiderwort (Commelina benghalensis L.), annual bluegrass (Poa annua L.), downy bromegrass (Bromus tectorum L.), itchgrass (Rottboellia cochinchinensis (L.) L.f.), quackgrass (Elytrigia repens (L.) Nevski), Canada horseweed (Erigeron Canadensis L.), field bindweed (Convolvulus arvensis L.), spotted spurge (Euphorbia maculata L.), common mallow (Malva sylvestris (=s silvestris) L.), and Russian thistle (Salsola kali L. ssp. Ruthenica (Iljin) Soo) were planted and treated preemergence with test chemicals formulated in a non-phytotoxic solvent mixture which included a surfactant.
(§2) At the same time, plants selected from these weed species were treated with postemergence applications of some of the test chemicals formulated in the same manner. Plants ranged in height from 2 to 18 cm (1- to 4-leaf stage) for postemergence treatments. Treated plants and controls were maintained in a greenhouse for 12 to 14 days, after which time all species were compared to controls and visually evaluated. Plant response ratings, summarized in Table E, are based on a scale of 0 to 100 where 0 is no effect and 100 is complete control. A dash (-) response means no test result.

southern sandbur = assay type: in vivo, Cenchrus echinatus
From the text: as §1, §2

field bindweed = assay type: in vivo, Convolvulus arvensis
From the text: as §1, §2

Russian thistle = assay type: in vivo, Salsola kali; settings: Preemergence
From the text: as §1, §2

common sowthistle = assay type: in vivo, Sonchus oleraceous
From the text: as §1, §2

common ragweed = assay type: in vivo, Ambrosia elatior
From the text: as §1, §2

goosegrass = assay type: in vivo, Eleusine indica
From the text: as §1, §2

dallisgrass = assay type: in vivo, Paspalum dilatatum
From the text: as §1, §2

purple nutsedge = assay type: in vivo, Cyperus rotundus
From the text: as §1, §2

[1] = Postemergence, 250 g ai/ha, scale 0 to 100
[2] = Preemergence, 62 g ai/ha, scale 0 to 100
[3] = Preemergence, 125 g ai/ha, scale 0 (no effect) to 100 (complete control)
[4] = Preemergence, 250 g ai/ha, scale 0 (no effect) to 100 (complete control)
[5] = Preemergence, 500 g ai/ha, scale 0 (no effect) to 100 (complete control)
[6] = postemergence, 125 g ai/ha, scale 0 to 100
[7] = postemergence, 62 g ai/ha, scale 0 to 100
[8] = 500 g ai/ha, scale 0 (no effect) to 100 (complete control)
[9] = Preemergence, 125 g ai/ha, scale 0 to 100
[10] = Preemergence, 375 g ai/ha, scale 0 (no effect) to 100 (complete control)
[11] = Postemergence, 500 g ai/ha, scale 0 to 100

CCNC(=O)c1ccc(F)c(NC(=O)c2cc(C(C)(C)C)nn2CC)c1 [Compound 2, 3-(1,1-dimethylethyl)-1-ethyl-N-[5-[(ethylamino)carbonyl]-2-fluorophenyl]-1H-pyrazole-5-carboxamide]
Plant response rating, Bromegrass, Downy (downy bromegrass; [1]): 98
Plant response rating, Bromegrass, Downy (downy bromegrass; [2]): 50
Plant response rating, Bromegrass, Downy (downy bromegrass; [3]): 90
Plant response rating, Bromegrass, Downy (downy bromegrass; [4]): 90
Plant response rating, Bromegrass, Downy (downy bromegrass; [5]): 90
Plant response rating, Bromegrass, Downy (downy bromegrass; [6]): 75
Plant response rating, Bromegrass, Downy (downy bromegrass; [7]): 65
Plant response rating, Sandbur (southern sandbur; [1]): 95
Plant response rating, Sandbur (southern sandbur; [2]): 60
Plant response rating, Sandbur (southern sandbur; [3]): 70
Plant response rating, Sandbur (southern sandbur; [4]): 80
Plant response rating, Sandbur (southern sandbur; [5]): 100
Plant response rating, Sandbur (southern sandbur; [6]): 75
Plant response rating, Sandbur (southern sandbur; [7]): 65
Plant response rating, Bindweed, Field (field bindweed; [1]): 70
Plant response rating, Bindweed, Field (field bindweed; [2]): 10
Plant response rating, Bindweed, Field (field bindweed; [4]): 70
Plant response rating, Bindweed, Field (field bindweed; [5]): 80
Plant response rating, Bindweed, Field (field bindweed; [6]): 70
Plant response rating, Bindweed, Field (field bindweed; [7]): 50
Plant response rating, Thistle (Russian thistle; 62 g ai/ha, scale 0 to 100): 50
Plant response rating, Thistle (Russian thistle; 125 g ai/ha, scale 0 to 100): 60
Plant response rating, Thistle (Russian thistle; 250 g ai/ha, scale 0 (no effect) to 100 (complete control)): 60
Plant response rating, Thistle (Russian thistle; [8]): 80
Plant response rating, Sowthistle (common sowthistle; [1]): 95
Plant response rating, Sowthistle (common sowthistle; [2]): 90
Plant response rating, Sowthistle (common sowthistle; [3]): 95
Plant response rating, Sowthistle (common sowthistle; [4]): 95
Plant response rating, Sowthistle (common sowthistle; [5]): 95
Plant response rating, Sowthistle (common sowthistle; [6]): 90
Plant response rating, Sowthistle (common sowthistle; [7]): 90
Plant response rating, Ragweed (common ragweed; [2]): 20
Plant response rating, Ragweed (common ragweed; [3]): 60
Plant response rating, Ragweed (common ragweed; [4]): 70
Plant response rating, Ragweed (common ragweed; [5]): 85
Plant response rating, Ragweed (common ragweed; [6]): 80
Plant response rating, Ragweed (common ragweed; [7]): 60
Plant response rating, Goosegrass (goosegrass; [1]): 98
Plant response rating, Goosegrass (goosegrass; [2]): 80
Plant response rating, Goosegrass (goosegrass; [3]): 90
Plant response rating, Goosegrass (goosegrass; [4]): 95
Plant response rating, Goosegrass (goosegrass; [5]): 95
Plant response rating, Goosegrass (goosegrass; [6]): 95
Plant response rating, Goosegrass (goosegrass; [7]): 95
Plant response rating, Dallisgrass (dallisgrass; [1]): 90
Plant response rating, Dallisgrass (dallisgrass; [2]): 60
Plant response rating, Dallisgrass (dallisgrass; [3]): 90
Plant response rating, Dallisgrass (dallisgrass; [4]): 95
Plant response rating, Dallisgrass (dallisgrass; [5]): 95
Plant response rating, Dallisgrass (dallisgrass; [6]): 80
Plant response rating, Dallisgrass (dallisgrass; [7]): 75
Plant response rating, Nutsedge, Purple (purple nutsedge; [5]): 95

CCc1nn(C(C)(C)C)cc1C(=O)Nc1cc(C(=O)N(C)C)ccn1 [Compound 293]
Plant response rating, Bromegrass, Downy (downy bromegrass; [4]): 80
Plant response rating, Bromegrass, Downy (downy bromegrass; [5]): 80
Plant response rating, Sandbur (southern sandbur; [9]): 10
Plant response rating, Sandbur (southern sandbur; [4]): 100
Plant response rating, Sandbur (southern sandbur; [10]): 100
Plant response rating, Sandbur (southern sandbur; [5]): 100
Plant response rating, Bindweed, Field (field bindweed; [9]): 40
Plant response rating, Bindweed, Field (field bindweed; [4]): 60
Plant response rating, Bindweed, Field (field bindweed; [10]): 95
Plant response rating, Bindweed, Field (field bindweed; [5]): 95
Plant response rating, Thistle (Russian thistle; 125 g ai/ha, scale 0 to 100): 60
Plant response rating, Thistle (Russian thistle; 375 g ai/ha, scale 0 (no effect) to 100 (complete control)): 95
Plant response rating, Thistle (Russian thistle; [8]): 100
Plant response rating, Sowthistle (common sowthistle; [9]): 75
Plant response rating, Sowthistle (common sowthistle; [4]): 95
Plant response rating, Sowthistle (common sowthistle; [10]): 95
Plant response rating, Sowthistle (common sowthistle; [5]): 100
Plant response rating, Ragweed (common ragweed; [9]): 50
Plant response rating, Ragweed (common ragweed; [4]): 70
Plant response rating, Ragweed (common ragweed; [10]): 100
Plant response rating, Ragweed (common ragweed; [5]): 100
Plant response rating, Goosegrass (goosegrass; [9]): 90
Plant response rating, Goosegrass (goosegrass; [4]): 90
Plant response rating, Goosegrass (goosegrass; [10]): 95
Plant response rating, Goosegrass (goosegrass; [5]): 100
Plant response rating, Dallisgrass (dallisgrass; [9]): 60
Plant response rating, Dallisgrass (dallisgrass; [4]): 95
Plant response rating, Dallisgrass (dallisgrass; [10]): 95
Plant response rating, Dallisgrass (dallisgrass; [5]): 100
Plant response rating, Nutsedge, Purple (purple nutsedge; [4]): 40
Plant response rating, Nutsedge, Purple (purple nutsedge; [10]): 50
Plant response rating, Nutsedge, Purple (purple nutsedge; [5]): 60

CCn1nc(C(C)(C)C)cc1C(=O)Nc1cccc(C(N)=O)n1 [Compound 162, 6-[[[3-(1,1-dimethylethyl)-1-ethyl-1H-pyrazol-5-yl]carbonyl]amino]-2-pyridinecarboxamide]
Plant response rating, Bromegrass, Downy (downy bromegrass; [11]): 100
Plant response rating, Bromegrass, Downy (downy bromegrass; [1]): 98
Plant response rating, Bromegrass, Downy (downy bromegrass; [2]): 40
Plant response rating, Bromegrass, Downy (downy bromegrass; [9]): 80
Plant response rating, Bromegrass, Downy (downy bromegrass; [4]): 90
Plant response rating, Bromegrass, Downy (downy bromegrass; [5]): 100
Plant response rating, Bromegrass, Downy (downy bromegrass; [6]): 95
Plant response rating, Bromegrass, Downy (downy bromegrass; [7]): 50
Plant response rating, Sandbur (southern sandbur; [11]): 90
Plant response rating, Sandbur (southern sandbur; [1]): 80
Plant response rating, Sandbur (southern sandbur; [2]): 20
Plant response rating, Sandbur (southern sandbur; [9]): 70
Plant response rating, Sandbur (southern sandbur; [4]): 80
Plant response rating, Sandbur (southern sandbur; [5]): 80
Plant response rating, Sandbur (southern sandbur; [6]): 50
Plant response rating, Sandbur (southern sandbur; [7]): 20
Plant response rating, Bindweed, Field (field bindweed; [11]): 98
Plant response rating, Bindweed, Field (field bindweed; [1]): 95
Plant response rating, Bindweed, Field (field bindweed; [2]): 30
Plant response rating, Bindweed, Field (field bindweed; [9]): 80
Plant response rating, Bindweed, Field (field bindweed; [4]): 100
Plant response rating, Bindweed, Field (field bindweed; [5]): 100
Plant response rating, Bindweed, Field (field bindweed; [6]): 80
Plant response rating, Bindweed, Field (field bindweed; [7]): 50
Plant response rating, Thistle (Russian thistle; 62 g ai/ha, scale 0 to 100): 50
Plant response rating, Thistle (Russian thistle; 125 g ai/ha, scale 0 to 100): 50
Plant response rating, Thistle (Russian thistle; [8]): 70
Plant response rating, Sowthistle (common sowthistle; [11]): 100
Plant response rating, Sowthistle (common sowthistle; [1]): 75
Plant response rating, Sowthistle (common sowthistle; [2]): 40
Plant response rating, Sowthistle (common sowthistle; [9]): 60
Plant response rating, Sowthistle (common sowthistle; [4]): 80
Plant response rating, Sowthistle (common sowthistle; [5]): 95
Plant response rating, Sowthistle (common sowthistle; [6]): 75
Plant response rating, Sowthistle (common sowthistle; [7]): 75
Plant response rating, Ragweed (common ragweed; [11]): 90
Plant response rating, Ragweed (common ragweed; [1]): 80
Plant response rating, Ragweed (common ragweed; [2]): 20
Plant response rating, Ragweed (common ragweed; [9]): 60
Plant response rating, Ragweed (common ragweed; [4]): 75
Plant response rating, Ragweed (common ragweed; [5]): 95
Plant response rating, Ragweed (common ragweed; [6]): 75
Plant response rating, Ragweed (common ragweed; [7]): 50
Plant response rating, Goosegrass (goosegrass; [11]): 98
Plant response rating, Goosegrass (goosegrass; [1]): 95
Plant response rating, Goosegrass (goosegrass; [2]): 60
Plant response rating, Goosegrass (goosegrass; [9]): 90
Plant response rating, Goosegrass (goosegrass; [4]): 95
Plant response rating, Goosegrass (goosegrass; [5]): 95
Plant response rating, Goosegrass (goosegrass; [6]): 80
Plant response rating, Goosegrass (goosegrass; [7]): 50
Plant response rating, Dallisgrass (dallisgrass; [11]): 85
Plant response rating, Dallisgrass (dallisgrass; [1]): 70
Plant response rating, Dallisgrass (dallisgrass; [2]): 70
Plant response rating, Dallisgrass (dallisgrass; [9]): 95
Plant response rating, Dallisgrass (dallisgrass; [4]): 95
Plant response rating, Dallisgrass (dallisgrass; [5]): 95
Plant response rating, Dallisgrass (dallisgrass; [6]): 40
Plant response rating, Dallisgrass (dallisgrass; [7]): 20
Plant response rating, Nutsedge, Purple (purple nutsedge; [1]): 75
Plant response rating, Nutsedge, Purple (purple nutsedge; [2]): 0
